In patent US20230158025A1 (UNIVERSITY OF UTAH RESEARCH FOUNDATION, priority 2020, published 2023):
Like-named read-outs stand apart in the source and are kept apart here.

Key:
[1] = PAMPA permeability
[2] = target: recombinant mouse GALK1 (Mus musculus, UniProt Q9R0N0); assay: mGALK1 biochemical activity assay (Kinase-Glo Plus, ATP depletion)
In short: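 Recombinant GALK1 (5 nM) with 100 μM galactose; GALK1 turnover read as ATP depletion by Kinase-Glo Plus luminescence. Reaction ran 1 h at room temperature before detection reagent was added.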

[3] = aqueous kinetic solubility
[4] = rat microsomal stability (RLM); details: microsomal half-life
[5] = target: recombinant human GALK1 (Homo sapiens, UniProt P51570); assay: hGALK1 biochemical activity assay (Kinase-Glo Plus, ATP depletion)
recombinant human GALK1, sequence (P51570 whole entry): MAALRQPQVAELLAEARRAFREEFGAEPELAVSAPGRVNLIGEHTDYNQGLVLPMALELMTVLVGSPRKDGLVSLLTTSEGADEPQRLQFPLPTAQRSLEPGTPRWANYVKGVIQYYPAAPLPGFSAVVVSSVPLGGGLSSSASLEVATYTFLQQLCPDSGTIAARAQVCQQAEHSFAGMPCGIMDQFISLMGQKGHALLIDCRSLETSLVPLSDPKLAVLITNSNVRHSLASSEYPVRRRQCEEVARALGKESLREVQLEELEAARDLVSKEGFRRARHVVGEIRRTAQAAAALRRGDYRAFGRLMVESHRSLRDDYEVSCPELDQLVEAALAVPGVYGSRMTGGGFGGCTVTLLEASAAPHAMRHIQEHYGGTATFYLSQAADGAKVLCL
In short: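 Recombinant human or mouse GALK1 (5 nM, with 100 μM galactose, in the added enzyme solution) was run with ATP (35 μM in the substrate solution) in HEPES pH 8.0 buffer. Compounds were tested at 11 1/3-step concentrations from 57.4 μM to 0.97 nM. After 1 h at room temperature, remaining ATP was read by Kinase-Glo Plus luminescence.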

[6] = recombinant mouse GALK1, Kinase-Glo Plus ATP depletion, read-out: mGALK
[7] = recombinant human GALK1, Kinase-Glo Plus ATP depletion, read-out: hGALK
[8] = recombinant mouse GALK1, Kinase-Glo Plus ATP depletion
[9] = Tables 2-15, 35 μM ATP, 100 μM galactose, 1 h, bracketed figure after some values is undefined and not reported, read-out: mGALK IC50
[10] = Tables 2-15, 35 μM ATP, 100 μM galactose, 1 h, bracketed figure after some values (e.g. −1.2) is undefined and not reported, read-out: hGALK IC50
[11] = Tables 2-15, 35 μM ATP, 100 μM galactose, 1 h, bracketed figure after some values is undefined and not reported

recombinant mouse GALK1, sequence (Q9R0N0 whole entry): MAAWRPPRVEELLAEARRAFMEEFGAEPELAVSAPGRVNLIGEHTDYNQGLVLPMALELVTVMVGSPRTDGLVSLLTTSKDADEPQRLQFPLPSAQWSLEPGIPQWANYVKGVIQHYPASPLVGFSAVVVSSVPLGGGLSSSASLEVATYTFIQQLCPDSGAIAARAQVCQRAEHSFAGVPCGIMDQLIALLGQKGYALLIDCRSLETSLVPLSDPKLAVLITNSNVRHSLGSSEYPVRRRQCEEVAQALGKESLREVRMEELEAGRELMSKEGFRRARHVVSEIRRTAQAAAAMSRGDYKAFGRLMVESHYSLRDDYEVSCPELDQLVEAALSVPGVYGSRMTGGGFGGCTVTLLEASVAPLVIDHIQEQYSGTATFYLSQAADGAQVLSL

Compound	Perm. (1 × 10^−6 cm/sec) [1]	IC50 [2, 6] [µM]	Sol. [3] [µg/mL]	Metab. Stabil. (m) [4] [m]	IC50 [5, 7] [µM]	mGALK (μM) [2, 8]	hGALK (μM) ([5]; recombinant human GALK1, Kinase-Glo Plus ATP depletion)	IC50 [2, 9] [µM]	IC50 [5, 10] [µM]	mGALK IC50 [2, 11]
CC1=C(C(=O)Nc2cc(C(=O)O)ccn2)C(c2ccc(C)cc2Cl)N=C(Nc2nc3ncccc3o2)N1 (centres unmarked) [Compound 102, 2-(4-(2-chloro-4-methylphenyl)-6-methyl-2-(oxazolo[4,5-b]pyridin-2-ylamino)-1,4-dihydropyrimidine-5-carboxamido)isonicotinic acid]	<1 1 × 10^−6 cm/sec	19.3	>51	>30	4.85			19.3	4.85	
CC1=C(C(=O)NCc2cnn(C)c2)C(c2ccc(C)cc2Cl)N=C(Nc2nc3cnccc3o2)N1 (centres unmarked) [Compound 104, 4-(2-chloro-4-methylphenyl)-6-methyl-N-((1-methyl-1H-pyrazol-4-yl)methyl)-2-(oxazolo[4,5-c]pyridin-2-ylamino)-1,4-dihydropyrimidine-5-carboxamide]	127.62 1 × 10^−6 cm/sec	12.2	>49	5.12	3.06			12.2	3.06	
CC1=C(C(=O)NCc2cnn(C)c2)C(c2ccc(C)cc2Cl)N=C(Nc2nc3ncccc3o2)N1 (centres unmarked) [Compound 105, 4-(2-chloro-4-methylphenyl)-6-methyl-N-((1-methyl-1H-pyrazol-4-yl)methyl)-2-(oxazolo[4,5-b]pyridin-2-ylamino)-1,4-dihydropyrimidine-5-carboxamide]	62.84 1 × 10^−6 cm/sec		>49	6.149	15.3	in- active			15.3	inactive
CC1=C(C(=O)NCc2cnn(C)c2)C(c2ccc(C)cc2Cl)N=C(Nc2nc3cccnc3o2)N1 (centres unmarked) [Compound 107, 4-(2-chloro-4-methylphenyl)-6-methyl-N-((1-methyl-1H-pyrazol-4-yl)methyl)-2-(oxazolo[5,4-b]pyridin-2-ylamino)-1,4-dihydropyrimidine-5-carboxamide]	355.44 1 × 10^−6 cm/sec		4.8	3.664	17.2	in- active			17.2	inactive
CC1=C(C(=O)Nc2cc(C(=O)O)ccn2)C(c2ccc(C)cc2Cl)N=C(Nc2nc3cccnc3o2)N1 (centres unmarked) [Compound 108, 2-(4-(2-chloro-4-methylphenyl)-6-methyl-2-(oxazolo[5,4-b]pyridin-2-ylamino)-1,4-dihydropyrimidine-5-carboxamido)isonicotinic acid]	<1 1 × 10^−6 cm/sec		>51	>30	12.2	in- active			12.2	inactive
CC1=C(C(=O)Nc2cc(C(=O)O)ccn2)C(c2ccc(C)cc2Cl)N=C(Nc2nc3c(o2)CCCC3)N1 (centres unmarked) [Compound 109, 2-(4-(2-chloro-4-methylphenyl)-6-methyl-2-((4,5,6,7-tetrahydrobenzo[d]oxazol-2-yl)amino)-1,4-dihydropyrimidine-5-carboxamido)isonicotinic acid]	<1.8 1 × 10^−6 cm/sec	4.32	>52	>30	3.06			4.32	3.06	
CC1=C(C(=O)NCc2c(C)nn(C)c2C)C(c2ccc(C)cc2Cl)N=C(Nc2nc3ccc(F)cc3o2)N1 (centres unmarked) [Compound 111, 4-(2-chloro-4-methylphenyl)-2-((6-fluorobenzo[d]oxazol-2-yl)amino)-6-methyl-N-((1,3,5-trimethyl-1H-pyrazol-4-yl)methyl)-1,4-dihydropyrimidine-5-carboxamide]	16.91 1 × 10^−6 cm/sec	4.85	<1	2.66	3.85			4.85	3.85	
CCn1cc(CNC(=O)C2=C(C)NC(Nc3nc4ccc(F)cc4o3)=NC2c2ccc(C)cc2Cl)cn1 (centres unmarked) [Compound 112, 4-(2-chloro-4-methylphenyl)-N-((1-ethyl-1H-pyrazol-4-yl)methyl)-2-((6-fluorobenzo[d]oxazol-2-yl)amino)-6-methyl-1,4-dihydropyrimidine-5-carboxamide]	<21.9 1 × 10^−6 cm/sec	6.85	<1	9.22	1.22			6.85	1.22	
CC1=C(C(=O)NCc2c(C)nn(C)c2C)C(c2ccc(C)cc2Cl)N=C(Nc2nc3cccc(N)c3o2)N1 (centres unmarked) [Compound 113, 2-((7-aminobenzo[d]oxazol-2-yl)amino)-4-(2-chloro-4-methylphenyl)-6-methyl-N-((1,3,5-trimethyl-1H-pyrazol-4-yl)methyl)-1,4-dihydropyrimidine-5-carboxamide]	127.92 1 × 10^−6 cm/sec	6.85	12.0	2.369	1.22			6.85	1.22	
CC1=C(C(=O)NCc2cnn(C)c2)[C@H](c2ccc(C)cc2Cl)N=C(Nc2nc3cccc(N)c3o2)N1 [Compound 115, (R)-2-((7-aminobenzo[d]oxazol-2-yl)amino)-4-(2-chloro-4-methylphenyl)-6-methyl-N-((1-methyl-1H-pyrazol-4-yl)methyl)-1,4-dihydropyrimidine-5-carboxamide]	416.8 1 × 10^−6 cm/sec	1.58	17.14	18.91	0.13					

The remaining lines, values ahead:

Perm. (1 × 10^−6 cm/sec) [1]	IC50 [2, 6] [µM]	Sol. [3] [µg/mL]	Metab. Stabil. (m) [4] [m]	IC50 [5, 7] [µM]	mGALK (μM) [2, 8]	hGALK (μM) ([5]; recombinant human GALK1, Kinase-Glo Plus ATP depletion)	IC50 [2, 9] [µM]	IC50 [5, 10] [µM]	mGALK IC50 [2, 11]	Compound
<3.4 1 × 10^−6 cm/sec	19.3	<1	>30	6.11						CC1=C(C(=O)Nc2nnc(-c3cccnc3)s2)C(c2ccccc2Cl)N=C(Nc2nc3cc(Cl)ccc3o2)N1 (centres unmarked) [Compound 98]
<2.9 1 × 10^−6 cm/sec		<1	>30		in- active	in- active				CC1=C(C(=O)Nc2nnc(-c3cccnc3)s2)C(c2ccccc2Cl)N=C(Nc2nc3ccc(C)cc3o2)N1 (centres unmarked) [Compound 99, 4-(2-chlorophenyl)-2-((6-methylbenzo[d]oxazol-2-yl)amino)-6-methyl-N-(5-(pyridin-3-yl)-1,3,4-thiadiazol-2-yl)-1,4-dihydropyrimidine-5-carboxamide]
<9.9 1 × 10^−6 cm/sec	38.5	<1	>30	17.2						CC1=C(C(=O)Nc2nnc(-c3cccnc3)s2)C(c2ccccc2Cl)N=C(Nc2nc3ccc(F)cc3o2)N1 (centres unmarked) [Compound 100, 4-(2-chlorophenyl)-2-((6-fluorobenzo[d]oxazol-2-yl)amino)-6-methyl-N-(5-(pyridin-3-yl)-1,3,4-thiadiazol-2-yl)-1,4-dihydropyrimidine-5-carboxamide]
<1 1 × 10^−6 cm/sec	6.85	>51	>30	0.86			6.85	0.86		CC1=C(C(=O)Nc2cc(C(=O)O)ccn2)C(c2ccc(C)cc2Cl)N=C(Nc2nc3cnccc3o2)N1 (centres unmarked) [Compound 106, 2-(4-(2-chloro-4-methylphenyl)-6-methyl-2-(oxazolo[4,5-c]pyridin-2-ylamino)-1,4-dihydropyrimidine-5-carboxamido)isonicotinic acid]
159.0 1 × 10^−6 cm/sec	5.44	<1	2.74	1.72			5.44	1.72		CC1=C(C(=O)NCc2cnn(Cc3ccccc3)c2)C(c2ccc(C)cc2Cl)N=C(Nc2nc3ccc(F)cc3o2)N1 (centres unmarked) [Compound 110, N-((1-benzyl-1H-pyrazol-4-yl)methyl)-4-(2-chloro-4-methylphenyl)-2-((6-fluorobenzo[d]oxazol-2-yl)amino)-6-methyl-1,4-dihydropyrimidine-5-carboxamide]
103.8 1 × 10^−6 cm/sec	5.44	<1	6.732	0.39			5.44	0.39		CC1=C(C(=O)NCc2cnn(Cc3ccccc3)c2)C(c2ccc(C)cc2Cl)N=C(Nc2nc3cccc(N)c3o2)N1 (centres unmarked) [Compound 114, 2-((7-aminobenzo[d]oxazol-2-yl)amino)-N-((1-benzyl-1H-pyrazol-4-yl)methyl)-4-(2-chloro-4-methylphenyl)-6-methyl-1,4-dihydropyrimidine-5-carboxamide]
